Measurements: patent publication US20260028365A1 (BIOGEN MA INC., priority 2022, published 2026)

The compounds below were run against Tyk2 (Homo sapiens (Human), UniProt P29597) (assay: pSTAT4 Cell Assay (MSD, NK92 cells)). Settings: MSD.
Chain of Tyk2 (P29597 whole entry): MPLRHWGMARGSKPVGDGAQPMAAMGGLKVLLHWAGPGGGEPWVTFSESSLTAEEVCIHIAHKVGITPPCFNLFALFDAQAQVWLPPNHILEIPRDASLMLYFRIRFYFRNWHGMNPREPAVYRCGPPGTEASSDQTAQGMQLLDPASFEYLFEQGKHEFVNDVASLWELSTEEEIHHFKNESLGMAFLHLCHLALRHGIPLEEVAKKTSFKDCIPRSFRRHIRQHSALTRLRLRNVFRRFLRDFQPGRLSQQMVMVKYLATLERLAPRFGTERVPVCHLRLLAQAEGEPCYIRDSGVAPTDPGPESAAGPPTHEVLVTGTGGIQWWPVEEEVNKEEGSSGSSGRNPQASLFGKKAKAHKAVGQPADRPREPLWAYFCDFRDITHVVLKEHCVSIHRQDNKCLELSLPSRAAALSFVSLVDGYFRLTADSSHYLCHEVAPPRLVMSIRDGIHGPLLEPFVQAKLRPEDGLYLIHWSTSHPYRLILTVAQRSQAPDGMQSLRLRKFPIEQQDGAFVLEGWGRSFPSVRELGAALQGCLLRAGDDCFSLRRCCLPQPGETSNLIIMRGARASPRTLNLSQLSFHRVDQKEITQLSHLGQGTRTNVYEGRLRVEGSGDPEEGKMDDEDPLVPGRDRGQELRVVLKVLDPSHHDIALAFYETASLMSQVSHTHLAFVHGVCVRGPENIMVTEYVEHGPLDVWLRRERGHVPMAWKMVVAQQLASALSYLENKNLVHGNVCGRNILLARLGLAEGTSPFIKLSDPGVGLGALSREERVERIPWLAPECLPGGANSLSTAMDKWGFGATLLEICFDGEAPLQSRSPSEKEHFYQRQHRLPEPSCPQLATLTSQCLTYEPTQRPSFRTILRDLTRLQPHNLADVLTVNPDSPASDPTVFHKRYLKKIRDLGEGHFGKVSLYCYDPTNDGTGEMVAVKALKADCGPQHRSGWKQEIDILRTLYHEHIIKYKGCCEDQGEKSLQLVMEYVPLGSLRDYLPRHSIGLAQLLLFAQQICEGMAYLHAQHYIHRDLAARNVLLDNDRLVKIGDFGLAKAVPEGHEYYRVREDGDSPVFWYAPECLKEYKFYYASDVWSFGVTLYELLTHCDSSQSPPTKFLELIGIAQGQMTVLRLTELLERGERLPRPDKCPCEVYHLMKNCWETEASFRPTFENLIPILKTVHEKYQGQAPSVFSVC
Format: cell-based
Procedure: The inhibitory potency of compounds of the disclosure against the Tyk2 kinase activity on STAT4 was evaluated using an MSD-platform plate-based assay format. NK92 cells natively expressing STAT4 and Tyk2 were serum-starved to reduce background phosphorylation levels, then cells were treated compounds for 1 hr with a 10-point four-fold dilution series starting at 10 μM. Cells were then stimulated with 30 ng/mL […] for 15 minutes. […] The data were normalized and the percent activity versus log concentration of compound were fitted with a 4-parameter logistic model to generate to generate IC50 curves.
`CC(=O)Nc1cc(Nc2cc(C)nc(C(C)(F)F)n2)c(-c2ccc([C@H]3COCCN3C)cn2)cn1` (single isomer, unassigned) [Example 645, (S)-N-(4′-((2-(1,1-difluoroethyl)-6-methylpyrimidin-4-yl)amino)-5-(4-methylmorpholin-3-yl)-[2,3′-bipyridin]-6′-yl)acetamide or (R)-N-(4′-((2-(1,1-difluoroethyl)-6-methylpyrimidin-4-yl)amino)-5-(4-methylmorpholin-3-yl)-[2,3′-bipyridin]-6′-yl)acetamide] showed an IC50 of at most 10 nM. For `CC(=O)Nc1cc(Nc2cc(C)nc(C(C)(F)F)n2)c(-c2ccc([C@@H]3COCCN3C)cn2)cn1` (single isomer, unassigned) [Example 646, (R)-N-(4′-((2-(1,1-difluoroethyl)-6-methylpyrimidin-4-yl)amino)-5-(4-methylmorpholin-3-yl)-[2,3′-bipyridin]-6′-yl)acetamide or (S)-N-(4′-((2-(1,1-difluoroethyl)-6-methylpyrimidin-4-yl)amino)-5-(4-methylmorpholin-3-yl)-[2,3′-bipyridin]-6′-yl)acetamide], the IC50 was at most 10 nM. `CC(=O)Nc1cc(Nc2ccnc(C(C)(F)F)n2)c(OC(F)F)cn1` [Example 6, N-(4-((2-(1,1-difluoroethyl)pyrimidin-4-yl)amino)-5-(difluoromethoxy)pyridin-2-yl)acetamide] gave an IC50 of at least 1000 nM. `CC(=O)Nc1cc(Nc2ccnc(C(C)(F)F)n2)c(OC2CCC2)cn1` [Example 7, N-(5-cyclobutoxy-4-((2-(1,1-difluoroethyl)pyrimidin-4-yl)amino)pyridin-2-yl)acetamide] gave an IC50 of 100 to 1000 nM. Compound `CC(=O)Nc1cc(Nc2cc(C)nc(C(C)(F)F)n2)c(OCC2(C)CC2)cn1` [Example 58, N-(4-((2-(1,1-difluoroethyl)-6-methylpyrimidin-4-yl)amino)-5-((1-methylcyclopropyl)methoxy)pyridin-2-yl)acetamide] has an IC50 of 10 to 100 nM. With `COCCOc1cnc(NC(C)=O)cc1Nc1cccc(C(F)CF)n1` (centres unmarked) [Example 73, N-(4-((6-(1,2-difluoroethyl)pyridin-2-yl)amino)-5-(2-methoxyethoxy)pyridin-2-yl)acetamide] the IC50 was 10 to 100 nM. With `CC(=O)Nc1cc(Nc2cc(C)nc(C(C)(F)F)n2)c(OCC23CC(C2)C3)cn1` [Example 100, N-(5-(bicyclo[1.1.1]pentan-1-ylmethoxy)-4-((2-(1,1-difluoroethyl)-6-methylpyrimidin-4-yl)amino)pyridin-2-yl)acetamide] the IC50 was at most 10 nM. In the case of `CNC(=O)COc1cnc(NC(C)=O)cc1Nc1cc(C)nc(C(C)(F)F)n1` [Example 102, 2-((6-acetamido-4-((2-(1,1-difluoroethyl)-6-methylpyrimidin-4-yl)amino)pyridin-3-yl)oxy)-N-methylacetamide], the IC50 is reported as 10 to 100 nM. For `CC(=O)Nc1cc(Nc2cc(C)nc(C(C)(F)F)n2)c(OCC(=O)N(C)C)cn1` [Example 103, 2-((6-acetamido-4-((2-(1,1-difluoroethyl)-6-methylpyrimidin-4-yl)amino)pyridin-3-yl)oxy)-N,N-dimethylacetamide], the IC50 was 100 to 1000 nM. With `CC(=O)Nc1cc(Nc2cc(C)nc(C(C)(F)F)n2)c(OCCC(F)F)cn1` [Example 104, N-(4-((2-(1,1-difluoroethyl)-6-methylpyrimidin-4-yl)amino)-5-(3,3-difluoropropoxy)pyridin-2-yl)acetamide] the IC50 was 10 to 100 nM. With `CCCCOc1cnc(NC(C)=O)cc1Nc1cc(C)nc(C(C)(F)F)n1` [Example 105, N-(5-butoxy-4-((2-(1,1-difluoroethyl)-6-methylpyrimidin-4-yl)amino)pyridin-2-yl)acetamide] the IC50 was at most 10 nM. `CC(=O)Nc1cc(Nc2cc(C)nc(C(C)(F)F)n2)c(OCCN2CCN(C)CC2)cn1` [Example 106, N-(4-((2-(1,1-difluoroethyl)-6-methylpyrimidin-4-yl)amino)-5-(2-(4-methylpiperazin-1-yl)ethoxy)pyridin-2-yl)acetamide] showed an IC50 of 10 to 100 nM. Work on `COCCCOc1cnc(NC(C)=O)cc1Nc1cc(C)nc(C(C)(F)F)n1` [Example 107, N-(4-((2-(1,1-difluoroethyl)-6-methylpyrimidin-4-yl)amino)-5-(3-methoxypropoxy)pyridin-2-yl)acetamide] yielded an IC50 of 10 to 100 nM. Work on `CC(=O)Nc1cc(Nc2cc(C)nc(C(C)(F)F)n2)c(OCc2nccs2)cn1` [Example 108, N-(4-((2-(1,1-difluoroethyl)-6-methylpyrimidin-4-yl)amino)-5-(thiazol-2-ylmethoxy)pyridin-2-yl)acetamide] yielded an IC50 of 10 to 100 nM. Compound `CCC1(COc2cnc(NC(C)=O)cc2Nc2cc(C)nc(C(C)(F)F)n2)COC1` [Example 109, N-(4-((2-(1,1-difluoroethyl)-6-methylpyrimidin-4-yl)amino)-5-((3-ethyloxetan-3-yl)methoxy)pyridin-2-yl)acetamide] has an IC50 of 10 to 100 nM. Compound `CC(=O)Nc1cc(Nc2cc(C)nc(C(C)(F)F)n2)c(OC[C@@H]2COC(C)(C)O2)cn1` [Example 110, (R)-N-(4-((2-(1,1-difluoroethyl)-6-methylpyrimidin-4-yl)amino)-5-((2,2-dimethyl-1,3-dioxolan-4-yl)methoxy)pyridin-2-yl)acetamide] has an IC50 of 10 to 100 nM. In the case of `CC(=O)Nc1cc(Nc2cc(C)nc(C(C)(F)F)n2)c(OCc2csnc2C)cn1` [Example 111, N-(4-((2-(1,1-difluoroethyl)-6-methylpyrimidin-4-yl)amino)-5-((3-methylisothiazol-4-yl)methoxy)pyridin-2-yl)acetamide], the IC50 is reported as 100 to 1000 nM. Compound `CC(=O)Nc1cc(Nc2cc(C)nc(C(C)(F)F)n2)c(OCc2nc(C)cs2)cn1` [Example 112, N-(4-((2-(1,1-difluoroethyl)-6-methylpyrimidin-4-yl)amino)-5-((4-methylthiazol-2-yl)methoxy)pyridin-2-yl)acetamide] has an IC50 of 10 to 100 nM. `CC(=O)Nc1cc(Nc2cc(C)nc(C(C)(F)F)n2)c(OCCOC(C)(C)C)cn1` [Example 113, N-(5-(2-(tert-butoxy)ethoxy)-4-((2-(1,1-difluoroethyl)-6-methylpyrimidin-4-yl)amino)pyridin-2-yl)acetamide] gave an IC50 of at most 10 nM. In the case of `COc1cc(COc2cnc(NC(C)=O)cc2Nc2cc(C)nc(C(C)(F)F)n2)ccn1` [Example 114, N-(4-((2-(1,1-difluoroethyl)-6-methylpyrimidin-4-yl)amino)-5-((2-methoxypyridin-4-yl)methoxy)pyridin-2-yl)acetamide], the IC50 is reported as 10 to 100 nM. `CC(=O)Nc1cc(Nc2cc(C)nc(C(C)(F)F)n2)c(OCc2cc(C)sn2)cn1` [Example 115, N-(4-((2-(1,1-difluoroethyl)-6-methylpyrimidin-4-yl)amino)-5-((5-methylisothiazol-3-yl)methoxy)pyridin-2-yl)acetamide] showed an IC50 of at most 10 nM. Work on `CC(=O)Nc1cc(Nc2cc(C)nc(C(C)(F)F)n2)c(OCc2ccc(C)nc2)cn1` [Example 116, N-(4-((2-(1,1-difluoroethyl)-6-methylpyrimidin-4-yl)amino)-5-((6-methylpyridin-3-yl)methoxy)pyridin-2-yl)acetamide] yielded an IC50 of 10 to 100 nM. `CC(=O)Nc1cc(Nc2cc(C)nc(C(C)(F)F)n2)c(OCc2csc(C)n2)cn1` [Example 117, N-(4-((2-(1,1-difluoroethyl)-6-methylpyrimidin-4-yl)amino)-5-((2-methylthiazol-4-yl)methoxy)pyridin-2-yl)acetamide] showed an IC50 of at most 10 nM. Compound `CC(=O)Nc1cc(Nc2cc(C)nc(C(C)(F)F)n2)c(OCc2nnc(C)s2)cn1` [Example 118, N-(4-((2-(1,1-difluoroethyl)-6-methylpyrimidin-4-yl)amino)-5-((5-methyl-1,3,4-thiadiazol-2-yl)methoxy)pyridin-2-yl)acetamide] has an IC50 of 10 to 100 nM. Work on `CC(=O)Nc1cc(Nc2cc(C)nc(C(C)(F)F)n2)c(OCc2ccnc(F)c2)cn1` [Example 120, N-(4-((2-(1,1-difluoroethyl)-6-methylpyrimidin-4-yl)amino)-5-((2-fluoropyridin-4-yl)methoxy)pyridin-2-yl)acetamide] yielded an IC50 of 10 to 100 nM. In the case of `CC(=O)Nc1cc(Nc2cc(C)nc(C(C)(F)F)n2)c(OCc2cc(C)no2)cn1` [Example 121, N-(4-((2-(1,1-difluoroethyl)-6-methylpyrimidin-4-yl)amino)-5-((3-methylisoxazol-5-yl)methoxy)pyridin-2-yl)acetamide], the IC50 is reported as 10 to 100 nM. With `CC(=O)Nc1cc(Nc2cc(C)nc(C(C)(F)F)n2)c(OCc2cnco2)cn1` [Example 122, N-(4-((2-(1,1-difluoroethyl)-6-methylpyrimidin-4-yl)amino)-5-(oxazol-5-ylmethoxy)pyridin-2-yl)acetamide] the IC50 was at most 10 nM. `CC(=O)Nc1cc(Nc2cc(C)nc(C(C)(F)F)n2)c(OCc2cc(C)cc(C)n2)cn1` [Example 123, N-(4-((2-(1,1-difluoroethyl)-6-methylpyrimidin-4-yl)amino)-5-((4,6-dimethylpyridin-2-yl)methoxy)pyridin-2-yl)acetamide] gave an IC50 of 10 to 100 nM. With `CC(=O)Nc1cc(Nc2cc(C)nc(C(C)(F)F)n2)c(OC[C@H]2COC(C)(C)O2)cn1` [Example 124, (S)-N-(4-((2-(1,1-difluoroethyl)-6-methylpyrimidin-4-yl)amino)-5-((2,2-dimethyl-1,3-dioxolan-4-yl)methoxy)pyridin-2-yl)acetamide] the IC50 was at most 10 nM. Work on `CC(=O)Nc1cc(Nc2cc(C)nc(C(C)(F)F)n2)c(OCc2cnccn2)cn1` [Example 126, N-(4-((2-(1,1-difluoroethyl)-6-methylpyrimidin-4-yl)amino)-5-(pyrazin-2-ylmethoxy)pyridin-2-yl)acetamide] yielded an IC50 of 10 to 100 nM. `COc1ccc(COc2cnc(NC(C)=O)cc2Nc2cc(C)nc(C(C)(F)F)n2)nc1` [Example 127, N-(4-((2-(1,1-difluoroethyl)-6-methylpyrimidin-4-yl)amino)-5-((5-methoxypyridin-2-yl)methoxy)pyridin-2-yl)acetamide] gave an IC50 of at most 10 nM. `COc1ccnc(COc2cnc(NC(C)=O)cc2Nc2cc(C)nc(C(C)(F)F)n2)c1` [Example 128, N-(4-((2-(1,1-difluoroethyl)-6-methylpyrimidin-4-yl)amino)-5-((4-methoxypyridin-2-yl)methoxy)pyridin-2-yl)acetamide] gave an IC50 of 10 to 100 nM.
